# Results: ChEMBL document CHEMBL1133915, “Design and synthesis of novel antibacterial agents with inhibitory activity against DNA polymerase III” (Bioorg Med Chem Lett, 2001)
# Legend:
# Staphylococcus aureus [1] = assay: In vitro percent inhibition against Pol III of Staphylococcus aureus at a concentration of 500 uM
# [2] = Tested for in vitro antibacterial activity against DNA polymerase III of Staphylococcus aureus
# Bacillus subtilis = assay: Tested for in vitro anti bacterial activity against Bacillus subtilis ATCC- 6633; format: functional
# [3] = Tested for in vitro antibacterial activity against DNA polymerase III; parameters: species or system Staphylococcus aureus
# Enterococcus faecium [4] = assay: Tested for in vitro anti bacterial activity against Enterococcus faecium RLAI (ampicillin and imipenem resistant); format: functional
# Staphylococcus aureus [5] = assay: Tested for in vitro anti bacterial activity against Staphylococcus aureus MB2985 […]; format: functional
# Streptococcus pneumoniae [6] = assay: Tested for in vitro anti bacterial activity against Streptococcus pneumoniae CL5350; format: functional
# Enterococcus faecium [7] = assay: Tested for in vitro anti bacterial activity against Enterococcus faecium RLAI (ampicillin and imipenem resistant), growth unaffected at highest level; format: functional
# Streptococcus pneumoniae [8] = assay: Tested for in vitro anti bacterial activity against Streptococcus pneumoniae CL5350 and growth affected but tested at highest level of inhibition; format: functional
SMILES,inhibition (Staphylococcus aureus [1]) [%],MIC (Bacillus subtilis) [µg/mL],IC50 [3] [µM],MIC (Enterococcus faecium [4]) [µg/mL],MIC (Staphylococcus aureus [5]) [µg/mL],further results
Cc1ccc(Nc2cc(Sc3ccccc3)nc(N)n2)cc1I,2,,,,,
CCc1cc(Nc2cc(Oc3ccc(Br)cc3)nc(N)n2)ccc1C,97,,,,,IC50 [2]: 10 µM
CCc1cc(Nc2cc(Cl)nc(N)n2)ccc1C,,3,53,13,> 26,MIC (Streptococcus pneumoniae [6]): 26 µg/mL
CCc1cc(Nc2cc(Oc3ccc(Cl)cc3)nc(N)n2)ccc1C,13,,,,,
CC(C)(C)c1cccc(Nc2cc(Cl)nc(N)n2)c1,,7,89,14,7,MIC (Streptococcus pneumoniae [6]): 14 µg/mL
CSc1cc(Nc2ccc(C)c(I)c2)nc(N)n1,20,,,,,
Cc1ccc(Nc2cc(Cl)nc(N)n2)cc1I,,5,51,36,> 36,MIC (Streptococcus pneumoniae [6]): 18 µg/mL
Cc1ccc(Nc2cc(Cl)nc(N)n2)cc1Cl,,13,126,27,27,MIC (Streptococcus pneumoniae [6]): 27 µg/mL
Nc1nc(Cl)cc(Nc2ccc3c(c2)CCC3)n1,,3,119,,> 26,MIC (Enterococcus faecium [7]): > 26 µg/mL; MIC (Streptococcus pneumoniae [8]): > 26 µg/mL
CCc1cc(Nc2cc(Oc3ccc(F)cc3)nc(N)n2)ccc1C,33,,,,,
Nc1nc(Cl)cc(Nc2ccc(Cl)c(Cl)c2)n1,,7,98,29,29,MIC (Streptococcus pneumoniae [8]): > 29 µg/mL
Cc1ccc(Nc2cc(N(C)C)nc(N)n2)cc1C,27,,,,,
Cc1ccc(Nc2cc(Cl)nc(N)n2)cc1Br,,8,94,31,,MIC (Streptococcus pneumoniae [6]): 31 µg/mL
Cc1cc(Nc2ccc(C)c(I)c2)nc(N)n1,21,,,,,
CCc1cc(Nc2cc(Oc3cccc(C)c3)nc(N)n2)ccc1C,88,,,,,IC50 [2]: 54 µM
Cc1ccc(Nc2cc(Cl)nc(N)n2)cc1C,,6,115,,> 25,MIC (Enterococcus faecium [7]): > 25 µg/mL; MIC (Streptococcus pneumoniae [8]): > 25 µg/mL
Cc1ccc(Nc2cc(S)nc(N)n2)cc1I,54,,,,,
